Results: the kinase profiling compilation of Christmann-Franck et al. (2016)
Values joined by “and” are separate entries in the source; they are usually repeats but may differ in a detail not shown here. Identical values can stand only once.

How the values were obtained:
Assay in all cases: radiometric filter-binding kinase assay, Kinase HotSpot
Settings in all cases: compound 0.5 µM; ATP 10 µM
IRAK4 (human) = IRAK4 (human) (UniProt Q9NWZ3)
MAP3K7 TAB1 (human) = MAP3K7 TAB1 (human) (UniProt O43318+Q15750)
PIM3 (human) = PIM3 (human) (UniProt Q86V86)
MARK3 (human) = MARK3 (human) (UniProt P27448)
NEK7 (human) = NEK7 (human) (UniProt Q8TDX7)
PRKD3 (human) = PRKD3 (human) (UniProt O94806)
RPS6KA3 KD1 KD2 (human) = RPS6KA3 KD1 KD2 (human) (UniProt P51812)
RPS6KA3 KD1 KD2 (human), sequence (P51812 whole entry, looked up): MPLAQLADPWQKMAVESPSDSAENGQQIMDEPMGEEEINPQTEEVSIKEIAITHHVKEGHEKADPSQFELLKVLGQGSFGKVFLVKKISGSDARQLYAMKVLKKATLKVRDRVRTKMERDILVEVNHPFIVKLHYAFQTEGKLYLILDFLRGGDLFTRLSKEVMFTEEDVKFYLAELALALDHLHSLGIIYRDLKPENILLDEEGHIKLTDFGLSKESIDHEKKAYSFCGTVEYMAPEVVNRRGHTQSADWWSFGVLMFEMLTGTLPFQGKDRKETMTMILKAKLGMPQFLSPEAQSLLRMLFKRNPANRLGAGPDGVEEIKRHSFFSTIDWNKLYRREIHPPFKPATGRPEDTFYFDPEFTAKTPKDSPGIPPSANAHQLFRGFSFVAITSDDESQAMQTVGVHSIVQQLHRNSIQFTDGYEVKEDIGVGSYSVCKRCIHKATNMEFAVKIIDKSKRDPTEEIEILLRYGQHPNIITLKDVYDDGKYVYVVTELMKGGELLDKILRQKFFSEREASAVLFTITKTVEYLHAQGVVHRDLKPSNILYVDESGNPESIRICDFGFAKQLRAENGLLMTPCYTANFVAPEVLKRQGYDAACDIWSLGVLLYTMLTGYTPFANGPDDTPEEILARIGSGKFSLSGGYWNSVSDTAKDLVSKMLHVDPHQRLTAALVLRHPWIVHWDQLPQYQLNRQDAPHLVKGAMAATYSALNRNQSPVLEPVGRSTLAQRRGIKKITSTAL

LYN (human) = LYN (human) (UniProt P07948)
ADRBK1 (human) = ADRBK1 (human) (UniProt P25098)
CLK4 (human) = CLK4 (human) (UniProt Q9HAZ1)
CHEK1 (human) = CHEK1 (human) (UniProt O14757)
CHEK1 (human), sequence (O14757 whole entry, looked up): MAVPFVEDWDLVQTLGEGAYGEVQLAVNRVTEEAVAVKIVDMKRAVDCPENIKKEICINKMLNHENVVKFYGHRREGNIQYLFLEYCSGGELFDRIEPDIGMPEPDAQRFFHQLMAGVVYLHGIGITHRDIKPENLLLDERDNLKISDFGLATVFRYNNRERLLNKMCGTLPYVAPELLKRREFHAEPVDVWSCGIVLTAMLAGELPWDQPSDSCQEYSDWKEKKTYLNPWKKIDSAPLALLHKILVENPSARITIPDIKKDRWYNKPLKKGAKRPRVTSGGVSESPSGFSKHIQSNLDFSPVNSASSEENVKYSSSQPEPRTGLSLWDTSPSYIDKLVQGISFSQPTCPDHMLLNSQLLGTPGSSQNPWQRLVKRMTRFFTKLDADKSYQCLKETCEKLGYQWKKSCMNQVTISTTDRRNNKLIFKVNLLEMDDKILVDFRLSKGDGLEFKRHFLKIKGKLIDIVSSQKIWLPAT

WNK2 (human) = WNK2 (human) (UniProt Q9Y3S1)
MAP4K4 (human) = MAP4K4 (human) (UniProt O95819)
MAPKAPK3 (human) = MAPKAPK3 (human) (UniProt Q16644)
CAMK2D (human) = CAMK2D (human) (UniProt Q13557)
CAMK2D (human), sequence (Q13557 whole entry, looked up): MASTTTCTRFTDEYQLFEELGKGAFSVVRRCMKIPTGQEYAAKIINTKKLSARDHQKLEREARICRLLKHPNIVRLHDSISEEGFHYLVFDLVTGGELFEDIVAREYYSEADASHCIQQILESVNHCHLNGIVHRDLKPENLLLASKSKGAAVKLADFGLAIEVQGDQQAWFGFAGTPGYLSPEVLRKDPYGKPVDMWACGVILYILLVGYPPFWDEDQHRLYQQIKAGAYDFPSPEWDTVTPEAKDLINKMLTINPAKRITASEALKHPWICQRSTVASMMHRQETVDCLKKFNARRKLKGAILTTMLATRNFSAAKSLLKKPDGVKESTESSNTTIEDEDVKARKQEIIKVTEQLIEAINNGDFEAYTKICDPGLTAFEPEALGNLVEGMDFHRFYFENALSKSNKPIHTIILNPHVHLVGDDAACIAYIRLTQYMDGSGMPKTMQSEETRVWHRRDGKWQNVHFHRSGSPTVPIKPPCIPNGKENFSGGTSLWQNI

MARK4 (human) = MARK4 (human) (UniProt Q96L34)
PRKCB2 (human) = PRKCB2 (human) (UniProt P05771)
ALK (human) = ALK (human) (UniProt Q9UM73)
PBK (human) = PBK (human) (UniProt Q96KB5)
DAPK1 (human) = DAPK1 (human) (UniProt P53355)
SGK2 (human) = SGK2 (human) (UniProt Q9HBY8)
NEK2 (human) = NEK2 (human) (UniProt P51955)
NEK4 (human) = NEK4 (human) (UniProt P51957)
IRAK1 (human) = IRAK1 (human) (UniProt P51617)
WEE1 (human) = WEE1 (human) (UniProt P30291)
GSK3B (human) = GSK3B (human) (UniProt P49841)
IKBKE (human) = IKBKE (human) (UniProt Q14164)
IKBKE (human), sequence (Q14164 whole entry, looked up): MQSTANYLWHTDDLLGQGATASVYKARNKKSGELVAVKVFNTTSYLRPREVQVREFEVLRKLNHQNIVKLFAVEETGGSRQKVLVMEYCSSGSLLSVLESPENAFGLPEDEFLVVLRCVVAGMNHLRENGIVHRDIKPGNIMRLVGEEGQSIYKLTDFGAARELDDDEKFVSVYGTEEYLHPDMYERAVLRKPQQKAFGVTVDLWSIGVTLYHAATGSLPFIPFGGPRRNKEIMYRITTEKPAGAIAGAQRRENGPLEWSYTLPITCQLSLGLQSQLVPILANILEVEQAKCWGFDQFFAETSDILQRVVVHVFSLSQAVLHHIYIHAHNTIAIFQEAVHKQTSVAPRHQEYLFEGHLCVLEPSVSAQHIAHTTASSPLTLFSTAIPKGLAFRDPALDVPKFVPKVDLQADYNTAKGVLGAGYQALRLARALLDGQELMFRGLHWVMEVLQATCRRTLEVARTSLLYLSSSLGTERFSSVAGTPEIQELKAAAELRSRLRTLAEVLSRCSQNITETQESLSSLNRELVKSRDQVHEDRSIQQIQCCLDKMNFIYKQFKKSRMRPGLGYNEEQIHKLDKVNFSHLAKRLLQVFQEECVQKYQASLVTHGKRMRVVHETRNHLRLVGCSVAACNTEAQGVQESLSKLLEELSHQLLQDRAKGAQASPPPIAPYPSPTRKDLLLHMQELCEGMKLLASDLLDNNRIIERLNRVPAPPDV

NEK3 (human) = NEK3 (human) (UniProt P51956)
NEK3 (human), sequence (P51956 whole entry, looked up): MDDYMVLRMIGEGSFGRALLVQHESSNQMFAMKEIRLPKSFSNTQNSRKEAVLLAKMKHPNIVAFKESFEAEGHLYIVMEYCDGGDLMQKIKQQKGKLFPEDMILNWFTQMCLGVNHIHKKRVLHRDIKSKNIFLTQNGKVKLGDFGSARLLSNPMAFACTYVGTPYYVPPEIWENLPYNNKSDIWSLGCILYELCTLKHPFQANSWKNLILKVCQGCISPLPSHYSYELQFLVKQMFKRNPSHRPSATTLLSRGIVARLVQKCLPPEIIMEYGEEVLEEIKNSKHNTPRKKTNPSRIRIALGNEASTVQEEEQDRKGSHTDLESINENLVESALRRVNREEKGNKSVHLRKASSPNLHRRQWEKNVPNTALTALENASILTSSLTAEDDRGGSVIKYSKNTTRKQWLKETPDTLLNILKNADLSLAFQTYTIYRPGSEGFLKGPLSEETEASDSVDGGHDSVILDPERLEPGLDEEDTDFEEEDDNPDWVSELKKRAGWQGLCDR

NEK1 (human) = NEK1 (human) (UniProt Q96PY6)
MAPK1 (human) = MAPK1 (human) (UniProt P28482)
VRK1 (human) = VRK1 (human) (UniProt Q99986)
VRK1 (human), sequence (Q99986 whole entry, looked up): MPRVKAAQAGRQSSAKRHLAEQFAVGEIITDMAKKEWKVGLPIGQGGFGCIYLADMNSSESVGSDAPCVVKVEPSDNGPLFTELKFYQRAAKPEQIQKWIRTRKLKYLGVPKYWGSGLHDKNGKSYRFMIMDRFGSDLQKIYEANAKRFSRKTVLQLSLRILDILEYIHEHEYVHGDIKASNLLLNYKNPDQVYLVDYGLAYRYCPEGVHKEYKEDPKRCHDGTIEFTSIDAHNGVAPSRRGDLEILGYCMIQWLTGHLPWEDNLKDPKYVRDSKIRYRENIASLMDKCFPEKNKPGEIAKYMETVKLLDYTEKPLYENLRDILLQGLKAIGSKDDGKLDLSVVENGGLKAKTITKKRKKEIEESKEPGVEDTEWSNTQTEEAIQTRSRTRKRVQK

PAK1 (human) = PAK1 (human) (UniProt Q13153)
PDGFRA (human) = PDGFRA (human) (UniProt P16234)
PDGFRA (human), sequence (P16234 whole entry, looked up): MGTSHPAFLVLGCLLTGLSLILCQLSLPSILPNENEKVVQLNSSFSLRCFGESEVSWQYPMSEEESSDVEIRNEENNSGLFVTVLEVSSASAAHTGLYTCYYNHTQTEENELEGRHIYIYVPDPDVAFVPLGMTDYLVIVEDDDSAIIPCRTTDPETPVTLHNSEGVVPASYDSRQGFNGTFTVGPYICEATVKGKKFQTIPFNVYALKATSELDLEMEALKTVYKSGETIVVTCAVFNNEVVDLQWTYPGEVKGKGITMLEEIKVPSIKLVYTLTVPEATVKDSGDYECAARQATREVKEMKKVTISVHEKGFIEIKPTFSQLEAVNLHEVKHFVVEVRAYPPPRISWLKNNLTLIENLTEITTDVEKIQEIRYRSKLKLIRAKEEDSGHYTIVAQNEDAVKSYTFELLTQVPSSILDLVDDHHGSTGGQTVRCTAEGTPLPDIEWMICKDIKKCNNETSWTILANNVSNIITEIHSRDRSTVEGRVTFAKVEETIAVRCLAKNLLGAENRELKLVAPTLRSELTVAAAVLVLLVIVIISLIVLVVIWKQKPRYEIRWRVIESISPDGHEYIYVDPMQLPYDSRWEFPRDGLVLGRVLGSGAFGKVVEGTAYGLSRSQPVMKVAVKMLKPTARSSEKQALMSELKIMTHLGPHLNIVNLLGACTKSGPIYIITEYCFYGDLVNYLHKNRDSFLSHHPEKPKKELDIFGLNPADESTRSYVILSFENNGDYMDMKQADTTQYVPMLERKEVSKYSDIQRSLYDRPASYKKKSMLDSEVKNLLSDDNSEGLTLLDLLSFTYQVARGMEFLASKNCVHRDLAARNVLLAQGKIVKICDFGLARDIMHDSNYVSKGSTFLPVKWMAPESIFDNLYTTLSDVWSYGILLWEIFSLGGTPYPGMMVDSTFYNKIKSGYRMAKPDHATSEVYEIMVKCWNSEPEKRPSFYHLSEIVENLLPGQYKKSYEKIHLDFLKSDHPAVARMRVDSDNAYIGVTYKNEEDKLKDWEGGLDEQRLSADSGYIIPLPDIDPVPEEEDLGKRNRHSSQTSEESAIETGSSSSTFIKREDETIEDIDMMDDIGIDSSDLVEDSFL

TBK1 (human) = TBK1 (human) (UniProt Q9UHD2)
CDK4 CCND1 (human) = CDK4 CCND1 (human) (UniProt P24385+P11802)
TGFBR2 (human) = TGFBR2 (human) (UniProt P37173)
SRC (human) = SRC (human) (UniProt P12931)
TXK (human) = TXK (human) (UniProt P42681)
ZAP70 (human) = ZAP70 (human) (UniProt P43403)
BRSK2 (human) = BRSK2 (human) (UniProt Q8IWQ3)
TSSK1B (human) = TSSK1B (human) (UniProt Q9BXA7)
FYN (human) = FYN (human) (UniProt P06241)

O=C1Nc2ccccc2/C1=C\c1c(Cl)[nH]c2ccccc12
residual activity (IRAK4 (human)): 102% | residual activity (MAP3K7 TAB1 (human)): 99.2% | residual activity (PIM3 (human)): 100% | residual activity (MARK3 (human)): 104% | residual activity (NEK7 (human)): 97.6% | residual activity (PRKD3 (human)): 87.7% | residual activity (RPS6KA3 KD1 KD2 (human)): 82.9% | residual activity (LYN (human)): 93.6% and 99.7% | residual activity (ADRBK1 (human)): 98.9% | residual activity (CLK4 (human)): 105% | residual activity (CHEK1 (human)): 93.7% | residual activity (WNK2 (human)): 93.4% | residual activity (MAP4K4 (human)): 75.7% | residual activity (MAPKAPK3 (human)): 91.3% | residual activity (CAMK2D (human)): 86.7% | residual activity (MARK4 (human)): 106% | residual activity (PRKCB2 (human)): 92.6% | residual activity (ALK (human)): 97.9% | residual activity (PBK (human)): 102% | residual activity (DAPK1 (human)): 88.1% | residual activity (SGK2 (human)): 103% | residual activity (NEK2 (human)): 99% | residual activity (NEK4 (human)): 97.7% | residual activity (IRAK1 (human)): 89.5% | residual activity (WEE1 (human)): 107% | residual activity (GSK3B (human)): 105% | residual activity (IKBKE (human)): 98% | residual activity (NEK3 (human)): 91.2% | residual activity (NEK1 (human)): 96.7% | residual activity (MAPK1 (human)): 96.4% | residual activity (VRK1 (human)): 104% | residual activity (PAK1 (human)): 92.8% | residual activity (PDGFRA (human)): 88.7% | residual activity (TBK1 (human)): 95.9% | residual activity (CDK4 CCND1 (human)): 98.4% | residual activity (TGFBR2 (human)): 95.6% | residual activity (SRC (human)): 78.5% | residual activity (TXK (human)): 99.6% | residual activity (ZAP70 (human)): 106% | residual activity (BRSK2 (human)): 96.2% | residual activity (TSSK1B (human)): 101% | residual activity (FYN (human)): 101%

CSc1nc(-c2ccc(F)cc2)c(-c2ccnc(NC(C)c3ccccc3)c2)[nH]1 (configuration not stated)
residual activity (IRAK4 (human)): 82.6% | residual activity (MAP3K7 TAB1 (human)): 90.5% | residual activity (PIM3 (human)): 95.5% | residual activity (MARK3 (human)): 100% | residual activity (NEK7 (human)): 89.6% | residual activity (PRKD3 (human)): 82% | residual activity (RPS6KA3 KD1 KD2 (human)): 91% | residual activity (LYN (human)): 89.4% and 98.5% | residual activity (ADRBK1 (human)): 102% | residual activity (CLK4 (human)): 79.2% | residual activity (CHEK1 (human)): 101% | residual activity (WNK2 (human)): 118% | residual activity (MAP4K4 (human)): 91.6% | residual activity (MAPKAPK3 (human)): 107% | residual activity (CAMK2D (human)): 99.3% | residual activity (MARK4 (human)): 74.6% | residual activity (PRKCB2 (human)): 101% | residual activity (ALK (human)): 93.3% | residual activity (PBK (human)): 109% | residual activity (DAPK1 (human)): 101% | residual activity (SGK2 (human)): 96.1% | residual activity (NEK2 (human)): 89.9% | residual activity (NEK4 (human)): 102% | residual activity (IRAK1 (human)): 103% | residual activity (WEE1 (human)): 76.1% | residual activity (GSK3B (human)): 97.9% | residual activity (IKBKE (human)): 84% | residual activity (NEK3 (human)): 94.7% | residual activity (NEK1 (human)): 86.3% | residual activity (MAPK1 (human)): 102% | residual activity (VRK1 (human)): 94.1% | residual activity (PAK1 (human)): 97.7% | residual activity (PDGFRA (human)): 102% | residual activity (TBK1 (human)): 92% | residual activity (CDK4 CCND1 (human)): 109% | residual activity (TGFBR2 (human)): 96.5% | residual activity (SRC (human)): 99% | residual activity (TXK (human)): 93.1% | residual activity (ZAP70 (human)): 102% | residual activity (BRSK2 (human)): 94.8% | residual activity (TSSK1B (human)): 73.5% | residual activity (FYN (human)): 98.7%

COc1ccc(-c2cnc3c(-c4ccsc4)cnn3c2)cc1
residual activity (IRAK4 (human)): 82.1% | residual activity (MAP3K7 TAB1 (human)): 97.6% | residual activity (PIM3 (human)): 100% | residual activity (MARK3 (human)): 88.8% | residual activity (NEK7 (human)): 109% | residual activity (PRKD3 (human)): 100% | residual activity (RPS6KA3 KD1 KD2 (human)): 83.6% | residual activity (LYN (human)): 81.8% and 92.7% | residual activity (ADRBK1 (human)): 100% | residual activity (CLK4 (human)): 62% | residual activity (CHEK1 (human)): 90.8% | residual activity (WNK2 (human)): 103% | residual activity (MAP4K4 (human)): 28.4% | residual activity (MAPKAPK3 (human)): 97.5% | residual activity (CAMK2D (human)): 92% | residual activity (MARK4 (human)): 92.7% | residual activity (PRKCB2 (human)): 94.3% | residual activity (ALK (human)): 80.4% | residual activity (PBK (human)): 91.6% | residual activity (DAPK1 (human)): 103% | residual activity (SGK2 (human)): 96.7% | residual activity (NEK2 (human)): 90.2% | residual activity (NEK4 (human)): 80% | residual activity (IRAK1 (human)): 94% | residual activity (WEE1 (human)): 102% | residual activity (GSK3B (human)): 99.4% | residual activity (IKBKE (human)): 85.5% | residual activity (NEK3 (human)): 87.7% | residual activity (NEK1 (human)): 89.4% | residual activity (MAPK1 (human)): 99.2% | residual activity (VRK1 (human)): 105% | residual activity (PAK1 (human)): 97% | residual activity (PDGFRA (human)): 74.8% | residual activity (TBK1 (human)): 77.7% | residual activity (CDK4 CCND1 (human)): 69.8% | residual activity (TGFBR2 (human)): 84.1% | residual activity (SRC (human)): 91.7% | residual activity (TXK (human)): 85.2% | residual activity (ZAP70 (human)): 93.7% | residual activity (BRSK2 (human)): 94.1% | residual activity (TSSK1B (human)): 99.1% | residual activity (FYN (human)): 86.3%

CCN1/C(=C/C(C)=O)Sc2ccc(OC)cc21
residual activity (IRAK4 (human)): 123% | residual activity (MAP3K7 TAB1 (human)): 99.9% | residual activity (PIM3 (human)): 47.4% | residual activity (MARK3 (human)): 100% | residual activity (PRKD3 (human)): 62.5% | residual activity (RPS6KA3 KD1 KD2 (human)): 102% | residual activity (LYN (human)): 101% and 94.4% | residual activity (ADRBK1 (human)): 95.5% | residual activity (CLK4 (human)): 18.5% | residual activity (CHEK1 (human)): 87.9% | residual activity (WNK2 (human)): 91.1% | residual activity (MAP4K4 (human)): 83.2% | residual activity (MAPKAPK3 (human)): 90.1% | residual activity (CAMK2D (human)): 92.2% | residual activity (MARK4 (human)): 102% | residual activity (PRKCB2 (human)): 99.3% | residual activity (ALK (human)): 105% | residual activity (PBK (human)): 94.8% | residual activity (DAPK1 (human)): 109% | residual activity (SGK2 (human)): 93.7% | residual activity (NEK2 (human)): 97.6% | residual activity (NEK4 (human)): 92.8% | residual activity (IRAK1 (human)): 114% | residual activity (WEE1 (human)): 102% | residual activity (GSK3B (human)): 98.1% | residual activity (IKBKE (human)): 99% | residual activity (NEK3 (human)): 82.5% | residual activity (NEK1 (human)): 90.1% | residual activity (MAPK1 (human)): 97.1% | residual activity (VRK1 (human)): 98.2% | residual activity (PAK1 (human)): 92.9% | residual activity (PDGFRA (human)): 105% | residual activity (TBK1 (human)): 94.5% | residual activity (CDK4 CCND1 (human)): 92.1% | residual activity (TGFBR2 (human)): 78.5% | residual activity (SRC (human)): 94.4% | residual activity (TXK (human)): 100% | residual activity (ZAP70 (human)): 103% | residual activity (BRSK2 (human)): 89.5% | residual activity (TSSK1B (human)): 110% | residual activity (FYN (human)): 99.1%
